Source: patent publication US20230381160A1, “PROPHYLATIC USE OF CALCIUM CHANNEL BLOCKERS IN TUBERCULOSIS” (priority 2020, published 2023)

Test system: active TB
Assay: Nested case-control study (NHIRD): drug use and risk of incident active TB
Format: in vivo, human
Conditions: incidence of active TB
Text: National Health Insurance (NHI) program of Taiwan is a compulsory single-payer system that enrolls approximately 24 million residents with 99.8% coverage. We conducted a nested case-control study using the National Health Insurance Research Database (NHIRD) approved from the institutional review board of National Taiwan University Hospital. The NHIRD used a systematic approach to randomly select one million people from the enrollees of NHI, which represents the age, sex, and geographical region distribution of the Taiwanese population. The computerized NHIRD includes information on patient demographics, outpatient and inpatient electronic claim records, individual diagnoses by ICD-9 CM codes, operations, and prescribed medications. Detailed information regarding the name of the prescribed drugs, route of administration, quantity, and number of days of supply are also available. The study was approved by the Institutional Review Board at National Taiwan University Hospital (No. 201311043RINB). Patients' consent was waived because this is an electronic database study using anonymous subjects.
The study cohort consisted of all adult patients (≥18 years old) from the NHIRD that were followed longitudinally between January 1999 and December 2011. We used 1999 as pre-enrollment periods. TB was defined as those with any code for TB according to the ICD-9 CM codes (ICD-9 CM codes: 010-018, including all subcategories). All participants in the study cohort were followed and contributed person-time from the first day of 2000 until the earliest of the following end points: first diagnosis of active TB, termination of health insurance coverage, death, or the end of the study period, whichever came first. The year before the year of TB diagnosis was used for the evaluation of the drug exposure. […]
We assessed the covariates from the cohort entry to the year before the index date. Covariates assessed included: demographics, pre-existing chronic diseases, medications used, and proxy indicators for the lifestyle such as alcohol consumption or smoking related illness, and obesity or malnutrition. […]

COC(=O)C1=C(C)NC(C)=C(C(=O)OC)C1c1ccccc1[N+](=O)[O-] [Nifedipine, nifedipine]
IR % (case/person-years) (average daily dose 10 mg): 0% (0/694) | IR % (case/person-years) (average daily dose 20 mg): 0.34% (6/1,755) | IR % (case/person-years) (average daily dose 30 mg): 0.40% (6/1,499)
